Assays:
[1] = system: mitochondria from HEK293T cells expressing OMP25–msGFP–HaloTag; assay: Affinity capture of mitochondria with streptavidin beads, in-gel fluorescence; format: cell-based; conditions: for capture efficiency: 100 nM ligand, mean ± SEM; for mitochondria pulldown efficiency at 10-fold higher concentration: 1 µM ligand vs 100 nM
Procedure: We then used 15HTL and 16HTL to purify mitochondria from these cells by incubation followed by washing and cell lysis. The crude supernatant was incubated with streptavidin-coated magnetic microbeads and washed. The bead-bound mitochondria were lysed, and the resulting solution was analyzed by SDS–PAGE/in-gel fluorescence (Fig. 5 A and B). […] The lower in-gel fluorescence brightness for the wash and bound fractions of 15HTL or 16HTL compared to the wash and bound fractions of their parent dyes 5HTL or 6HTL (Fig. 5 B and C) stems from the variability of transient transfection and band broadening due to the larger ligand. […]
Affinity capture and in-gel fluorescence quantification. Affinity capture pulldown isolation experiments of biotin-labeled HaloTag fusion proteins were performed on ice-cold isolation buffer (IB) consisting of KCl (0.18 M), ethylene glycol-bis(β-aminoethyl ether)-N,N,N′,N′-tetraacetic acid (EGTA; 1 mM), 3-(N-morpholino)propanesulfonic acid (MOPS; 5 mM); the pH was adjusted to pH = 7.35 using KOH(aq).15 StrepTactin Microbeads (IBA Lifesciences, 6-5510-050) were used as capture reagents as these beads had lowest amount of background observed in our hands. These beads were kept at 4 °C and blocked in IB buffer with PMSF and 1% (v/v) bovine serum albumin (BSA; Jackson ImmunoResearch, 001-000-162) with rotation at 4 °C for 30 min. HEK293T cells were scraped with 200 µL IB and homogenized using 12 strokes with a 27G syringe. The resulting homogenate was spun at 4 °C at 800 g for 5 min to pellet large cellular debris. 50 µL of freshly blocked StrepTactin microbeads were added to the supernatant and incubated for 30 min at 4 °C with slow rotation. After incubation, tubes were placed in DynaMag2 (ThermoFisher, 12321D) magnetic racks and washed twice with IB+PMSF. All wash steps were kept at 4 °C (cold room).
The post-bead supernatant and wash volumes were pooled and spun at 15,000 g for 12 min. This last step pelleted the unbound mitochondria for final analysis of capture efficiency. The bead fraction and the pooled/pelleted fraction were then solubilized using the lysis buffer containing 1× PBS, 2% (v/v) SDS, 1% (v/v) Triton x-100, 10 mM EDTA, and protease inhibitors (2 mM PMSF, aprotinin, leupeptin, and pepstatin A). Samples were then incubated at 50 °C for 3–4 min after the addition of Laemmli sample buffer (SB; Bio-Rad, 1610747) with β-mercaptoethanol (Bio-Rad, 1610710). For protein detection, 10–20 µL of the sample was subjected to SDS-PAGE, using 10% Tris-Glycine gels (TGX) (Bio-Rad, 5671034) with Tris-Glycine buffer (Bio-Rad, 1610732). The affinity capture pulldown efficiency was monitored using in-gel fluorescence. The msGFP signal from HaloTag-TEV-4×GS-msGFP-mito after cell lysis and SDS-PAGE was analyzed, in-gel, using a Bio-Rad Chemidoc MP imager (Bio-Rad) through GFP fluorescence excitation and emission filters. Data were quantified by densitometry using Fiji.14 Capture efficiency was calculated comparing the total GFP signal recovered from StrepTactin beads vs the signal recovered from the high speed spin of the bead supernatant and pooled wash volumes. […]

HaloTag protein = biological target: T1, HaloTag protein (Rhodococcus rhodochrous, UniProt P0A3G2, A155T/A167V/A172T/A224E/C128F/C176G/D78G/E160K/E257K/H272N/K175M/K195N/L47V/L88M/N227D/S58T/T264A/Y273L/Y87F); assay: Absorbance/fluorescence increase upon HaloTag binding; format: biochemical; conditions: HaloTag conjugate vs free ligand
T1 construct: made in house
T1 sequence (P0A3G2 other isoform, or with tags, fused parts or gaps with the stated changes): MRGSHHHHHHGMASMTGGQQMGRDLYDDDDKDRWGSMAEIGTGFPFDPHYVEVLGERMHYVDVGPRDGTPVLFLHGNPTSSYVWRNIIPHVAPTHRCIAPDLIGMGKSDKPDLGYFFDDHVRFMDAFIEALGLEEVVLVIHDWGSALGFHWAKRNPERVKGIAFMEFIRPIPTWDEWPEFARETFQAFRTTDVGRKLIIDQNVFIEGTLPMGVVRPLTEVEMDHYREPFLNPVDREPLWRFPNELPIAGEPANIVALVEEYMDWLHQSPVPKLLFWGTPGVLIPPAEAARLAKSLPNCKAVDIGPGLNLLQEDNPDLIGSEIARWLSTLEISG
Procedure: HaloTag protein purification. The bacterial expression vector pRSET-A (Invitrogen) was used to recombinantly express HaloTag (HT7; Promega).1 The soluble 6×His-Tagged HaloTag protein was affinity purified by immobilized metal affinity chromatography (IMAC) on a 5 -mL Fast Flow HiTrap Sepharose 6 column (Cytiva) with a 0–200 mM imidazole elution gradient using an Avant Protein Purification System (ÄKTA). A280 peak fractions were pooled, concentrated by a spin concentrator, and dialyzed 3× into tris-buffered saline (TBS). The amino acid sequence of HaloTag (HT7) expressed from pRSET-A is noted below; the annotated DNA and amino acid sequences […]
Spectroscopy of HaloTag ligands and HaloTag conjugates. […]
± 2 °C). Absorption spectra were recorded on a Cary Model 100 spectrometer (Agilent) using 1-cm path length 1.0-mL quartz microcuvettes from Starna Cells. Fluorescence spectra were recorded on a Cary Eclipse fluorometer (Varian) using 1-cm path length 3.5-mL quartz cuvettes (Starna Cells). […] An aliquot of HaloTag protein (1.5 equiv) was added, and the resulting mixture was incubated until a consistent absorbance signal was observed (60–120 min).
To measure the fold-increase of absorbance upon HaloTag binding, a “no HaloTag” control experiment was performed where an equivalent volume of TBS blank was added in place of the protein. […]

Compound | protein capture ([1]; biotin-free ligands) | fluorogenicity upon HaloTag binding (HaloTag protein) [fold] | capture efficiency [1] [%] | mitochondria pulldown efficiency at 10-fold higher concentration [1]
C[Si]1(C)c2cc(N3CC(F)C3)ccc2C2(OC(=O)c3ccc(C(=O)NCCOCCOCCCCCCCl)cc32)c2ccc(N3CC(F)C3)cc21 [6HTL, JF635–HaloTag ligand, reference compound] | no appreciable protein capture |  |  | 
C[Si]1(C)C2=CC(=[N+]3CC(C(=O)NCCOCCOCCNC(=O)CCCC[C@@H]4SC[C@@H]5NC(=O)N[C@@H]54)C3)C=CC2=C(c2cc(C(=O)NCCOCCOCCCCCCCl)ccc2C(=O)[O-])c2ccc(N3CCC3)cc21 (stereo partly shown) [15HTL, biotin–JF646–HaloTag ligand] |  | 2.9 | 84.2 ± 1.8 | did not increase mitochondria pulldown efficiency
C[Si]1(C)C2=CC(=[N+]3CC(F)(C(=O)NCCOCCOCCNC(=O)CCCC[C@@H]4SC[C@@H]5NC(=O)N[C@@H]54)C3)C=CC2=C(c2cc(C(=O)NCCOCCOCCCCCCCl)ccc2C(=O)[O-])c2ccc(N3CC(F)C3)cc21 (stereo partly shown) [16HTL, biotin–JF635–HaloTag ligand] |  | 17.6 | 88.2 ± 1.1 | did not increase mitochondria pulldown efficiency
